Biological target: Serum paraoxonase/arylesterase 1 (Homo sapiens) (UniProt P27169)
Assay: Activity at human recombinant PON1 assessed as hydrolysis of lactone ring at 1 mM by Ellman's method

Chain of Serum paraoxonase/arylesterase 1 (Homo sapiens) (P27169 whole entry): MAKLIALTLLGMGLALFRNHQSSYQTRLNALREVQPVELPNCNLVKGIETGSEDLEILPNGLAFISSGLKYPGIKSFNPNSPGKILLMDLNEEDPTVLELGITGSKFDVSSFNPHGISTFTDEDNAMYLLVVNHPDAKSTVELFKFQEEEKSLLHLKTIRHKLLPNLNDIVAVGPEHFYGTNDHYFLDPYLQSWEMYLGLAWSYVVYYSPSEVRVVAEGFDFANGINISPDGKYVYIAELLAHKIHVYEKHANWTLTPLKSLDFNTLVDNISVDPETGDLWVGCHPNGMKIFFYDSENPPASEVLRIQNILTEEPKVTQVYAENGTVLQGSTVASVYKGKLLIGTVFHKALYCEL

SMILES	Activity
CC1=CCC(=O)O1	18.3 µmol/min/mg
O=C1C[C@H]2C=CC[C@H]2O1	0.83 µmol/min/mg
O=C1C[C@@H]2C=CC[C@@H]2O1	1.67 µmol/min/mg
O=C(O)Cc1ccccc1	112 µmol/min/mg
C[C@H]1CC(=O)O1	3.83 µmol/min/mg

The next lines start with the values.

Activity	SMILES
13.6 µmol/min/mg	O=C1Cc2ccccc2O1
33 µmol/min/mg	O=C1Cc2cc(O)ccc2O1

From ChEMBL document CHEMBL1155779, “Characterization of the PON1 active site using modeling simulation, in relation to PON1 lactonase activity” (Bioorg Med Chem, 2008)
